The results in this text go back to patent US10881110B2, “Herbicidal compositions comprising isoxazolo[5,4-b]pyridines” (BASF SE, priority 2014, dated 2021).

Holding throughout (assay): greenhouse post-emergence herbicidal test
The subject of one experiment is CONAR. Type of experiment: in vivo, Convolvulus arvensis. The note with it: 6 days after treatment. On the set-up: key: rating on a scale from 0 to 100. The procedure, abridged:
(§1)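 Post-emergence spray on 1–15 cm plants in medium loamy sand pots; actives as 10% w/w EC diluted in water. 10-25° C / 20-35° C per species. Visual score 20 d after treatment, 0 = no damage, 100 = full kill; Colby expected value E=X+Y−(X·Y/100).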

In the next experiment the test system is VIOAR. Type of experiment: in vivo, Viola arvensis. The note with it: post emergence, 6 days after treatment. Further details: key to herbicidal activity against VIOAR found / herbicidal activity against VIOLA found: rating on a scale from 0 to 100. The procedure, abridged:
(§2)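 Herbicidal activity scored on a 0 (no damage) to 100 (plants destroyed) scale, usually 20 days after water-based spraying of 1–15 cm plants grown in loamy sand at 10-25 °C or 20-35 °C depending on species. Components were applied from 10% emulsion concentrates; Colby's E=X+Y−(X·Y/100) gives the additive expectation.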

Another experiment concerns IPOHE. Type of experiment: in vivo, Ipomoea hederacea. Further details: key to herbicidal activity against IPOHE found: rating on a scale from 0 to 100. The note with it: post emergence, 6 days after treatment. The procedure, abridged: as §2
For a further experiment, the system named is ABUTH. Type of experiment: in vivo, Abutilon theophrast. The note with it: post emergence, 6 days after treatment, g/ha a.i.: I.1 31.25. Further details: key to herbicidal activity against ABUTH found: rating on a scale from 0 to 100. The procedure, abridged:
as §1

A further experiment has as its system SASKR. In kind it is in vivo, Salsola kali. The note with it: 6 days after treatment. Further details: key: scale 0 to 100. The procedure: (§3) The culture containers used were plastic pots containing medium loamy sand with approximately 4.6% of humus and 69.9% sand as substrate. The seeds of the test plants were sown separately for each species.
(§4) For the post-emergence treatment, the test plants were grown to a plant height of from 1 to 15 cm, depending on the plant habit, and only then treated with the active compounds which had been suspended or emulsified in water. To this end, the test plants were either sown directly, and grown in the same containers, or they were first grown separately as seedlings and transplanted into the test containers a few days prior to treatment.
(§5) Depending on the species, the plants were kept at 10-25° C. and 20-35° C., respectively.
(§6) The test period extended over 1 to 3 weeks. During this time, the plants were tended and their response to the individual treatments was evaluated 20 days after treatment except mentioned otherwise.
(§7) Evaluation was carried out using a scale from 0 to 100. 100 means no emergence of the plants, or complete destruction of at least the above-ground parts, and 0 means no damage or normal course of growth.
(§8) The respective stated components A and B, and, if appropriate, C, were formulated as a 10% by weight strength emulsion concentrate and, with addition of the amount of solvent system, introduced into the spray liquor used for applying the active compound. In the examples, the solvent used was water.
(§9) In the examples below, using the method of S. R. Colby (1967) “Calculating synergistic and antagonistic responses of herbicide combinations”, Weeds 15, p. 22 ff., the value E, which is expected if the activity of the individual active compounds is only additive, was calculated. E=X+Y−(X·Y/100)

The subject of a further experiment is POLPE. In kind it is in vivo, Persicaria maculosa. The note with it: 6 days after treatment, g/ha a.i.: I.1 31.25, B.96 35, mixture 31.25+35. Further details: key: scale 0 to 100. The procedure:
as §3, §4, §5, §6, §7, §8, §9

Another experiment relates to POLAV. Type of experiment: in vivo, Polygonum aviculare. On the set-up: key: rating on a scale from 0 to 100. The note with it: 6 days after treatment. The procedure: as §3, §4, §5, §6, §7, §8, §9
The subject of the next experiment is KCHSC. In kind it is in vivo, Kochia scoparia. Further details: key to herbicidal activity against KCHSC found: rating on a scale from 0 to 100. The note with it: post emergence, 6 days after treatment. In a few lines:
as §2

The next experiment relates to GALAP. In kind it is in vivo, Galium aparine. On the set-up: key to herbicidal activity against GALAP found: rating on a scale from 0 to 100. The note with it: post emergence, 6 days after treatment, g/ha a.i.: I.1 62.5. In a few lines: as §2
In another experiment the test system is POLCO. In kind it is in vivo, Polygonum convolvulus. Further details: key to herbicidal activity against POLCO found: rating on a scale from 0 to 100. The note with it: post emergence, 6 days after treatment. The procedure, abridged:
as §2

A further experiment relates to STEME. Type of experiment: in vivo, Stellaria media. The note with it: 6 days after treatment, g/ha a.i.: I.1 31.25, B.96 35, mixture 31.25+35. Further details: key: scale 0 to 100. In a few lines: as §1
For the next experiment, the system named is SORVU. In kind it is in vivo. The note with it: 6 days after treatment.
The next experiment has as its system AMBEL. In kind it is in vivo, Ambrosia artemisiifolia. The note with it: a.i. g/ha: I.1 20.8, B.192 62.5, 20 days after treatment. The procedure, abridged: as §1
The test system of a further experiment is AMARE. In kind it is in vivo, Amaranthus retroflexus. The note with it: a.i. g/ha: I.1 20.8, B.192 62.5, 20 days after treatment. The procedure: as §3, §4, §5, §6, §7, §8, §9
Another experiment relates to CHEAL. Type of experiment: in vivo, Chenopodium album. The note with it: a.i. g/ha: I.1 20.8, B.192 62.5, 20 days after treatment. The procedure, abridged: as §1
Another experiment concerns MATCH. In kind it is in vivo, Matricaria recutita. The note with it: post emergence. In a few lines:
as §1

Another experiment deals with SETVI. In kind it is in vivo, Setaria viridis. The note with it: a.i. g/ha: I.1 20.8, B.192 62.5, 20 days after treatment. The method, then:
as §3, §4, §5, §6
Evaluation was carried out using a scale from 0 to 100. […]
In the examples below, using the method of S. R. Colby (1967) “Calculating synergistic and antagonistic responses of herbicide combinations”, Weeds 15, p. 22 ff., the value E, which is expected if the activity of the individual active compounds is only additive, was calculated. […]

The test system of the next experiment is ERICA. Type of experiment: in vivo, Conyza canadensis. The note with it: post emergence; 6 days after treatment; g/ha a.i.: I.1 125; naptalam 50; mixture 125+50. In a few lines:
as §1

[1] abbreviates: g/ha a.i.: I.1 62.5, B.96 140, mixture 62.5+140.
Setting [2] is: g/ha a.i.: I.1 31.25, B.96 35, mixture 31.25+35.
Setting [3] is: g/ha a.i.: I.1 31.25, B.96 70, mixture 31.25+70.
Where [4] appears, read: g/ha a.i.: I.1 31.25, B.96 140, mixture 31.25+140.
The mark [5] stands for this setting: g/ha a.i.: I.1 62.5, B.96 35, mixture 62.5+35.
[6] abbreviates: g/ha a.i.: I.1 62.5, B.96 70, mixture 62.5+70.
Where [7] appears, read: g/ha a.i.: I.1 31.25, naptalam 50, mixture 31.25+50.
The mark [8] stands for this setting: g/ha a.i.: I.1 31.25, naptalam 100, mixture 31.25+100.
Setting [9] is: g/ha a.i.: I.1 31.25, naptalam 200, mixture 31.25+200.
Setting [10] is: g/ha a.i.: I.1 62.5, naptalam 100, mixture 62.5+100.
The mark [11] stands for this setting: g/ha a.i.: I.1 62.5, naptalam 200, mixture 62.5+200.
The mark [12] stands for this setting: g/ha a.i.: I.1 62.5, naptalam 50, mixture 62.5+50.

Molecules are shown by their SMILES.

On to `CS(=O)(=O)c1ccc(C(=O)C2=C(Sc3ccccc3)C3CCC(C3)C2=O)c(Cl)c1` (stereo not drawn) [B.96, benzobicyclon], for which the “herbicidal activity against CONAR found” value in the experiment with CONAR (setting [1]) was 75. For the same compound, the “herbicidal activity against VIOAR found” value in the experiment with VIOAR (setting [2]), in the experiment with VIOAR (setting [3]), with VIOAR (setting [4]), in the experiment with VIOAR (setting [5]), in the experiment on VIOAR (setting [6]) and with VIOAR (setting [1]) was 65 each time. Moreover, the “herbicidal activity against IPOHE found” value in the experiment with IPOHE (setting [2]), with IPOHE (setting [3]), in the experiment on IPOHE (setting [4]) and with IPOHE (setting [1]) was 70 each time. In addition, the “herbicidal activity against ABUTH found” value in the experiment on ABUTH (B.96 35, mixture 31.25+35) was found to be 80; with ABUTH (B.96 70, mixture 31.25+70), 85. Besides, in the experiment with SASKR (setting [1]), the “herbicidal activity against SASKR found” value is recorded as 65. The “herbicidal activity against POLPE found” value with POLPE was found to be 85. The “herbicidal activity against POLAV found” value in the experiment with POLAV (setting [6]) and with POLAV (setting [1]) was 70 each time. Also, the “herbicidal activity against KCHSC found” value was determined as 35 in the experiment on KCHSC (setting [2]); 40 in the experiment on KCHSC (setting [3]); 55 in the experiment on KCHSC (setting [4]); 35 in the experiment on KCHSC (setting [5]); 40 in the experiment on KCHSC (setting [6]). Besides, the “herbicidal activity against GALAP found” value in the experiment on GALAP (B.96 70, mixture 62.5+70) came out at 75; with GALAP (B.96 140, mixture 62.5+140), 80. Also, the “herbicidal activity against POLCO found” value amounted to 70 in the experiment with POLCO (setting [3]), 80 in the experiment on POLCO (setting [4]), 70 with POLCO (setting [6]) and 80 in the experiment with POLCO (setting [1]). The “herbicidal activity against STEME found” value in the experiment on STEME came to 85. Also, the “herbicidal activity against SORVU found” value with SORVU (setting [4]) is given as 60.

Turning to `COC(=O)Nc1cccc(OC(=O)Nc2cccc(C)c2)c1` [B.192, phenmedipham], the “herbicidal activity against AMBEL found” value in the experiment with AMBEL was 90%. In the experiment with AMARE, the “herbicidal activity against AMARE found” value was 35%. Further, the “herbicidal activity against CHEAL found” value in the experiment with CHEAL stood at 50%. The “herbicidal activity against MATCH found” value in the experiment with MATCH (a.i. g/ha: I.1 20.8, B.192 62.5, 20 days after treatment) is reported as 50%. In addition, the “herbicidal activity against SETVI found” value with SETVI turned out to be 65%.

As for `O=C(O)c1ccccc1C(=O)Nc1cccc2ccccc12` [naptalam], the “herbicidal activity against CONAR found” value in the experiment with CONAR (setting [7]) amounted to 80; with CONAR (setting [8]), 80; in the experiment on CONAR (setting [9]) it was 80; in the experiment with CONAR (g/ha a.i.: I.1 125, naptalam 100, mixture 125+100), 80. Moreover, the “herbicidal activity against VIOAR found” value turned out to be 70 with VIOAR (setting [9]), 65 in the experiment with VIOAR (setting [10]) and 70 in the experiment on VIOAR (setting [11]). For the same compound, in the experiment on ABUTH (naptalam 100, mixture 31.25+100), the “herbicidal activity against ABUTH found” value worked out at 85. Besides, the “herbicidal activity against MATCH found” value with MATCH (6 days after treatment, g/ha a.i.: I.1 31.25, naptalam 50, mixture 31.25+50) turned out to be 30; in the experiment on MATCH (6 days after treatment, g/ha a.i.: I.1 31.25, naptalam 100, mixture 31.25+100) it was 65; in the experiment on MATCH (6 days after treatment, g/ha a.i.: I.1 62.5, naptalam 50, mixture 62.5+50) it was 30. In addition, the “herbicidal activity against SASKR found” value in the experiment with SASKR (setting [9]) stood at 80; with SASKR (setting [12]) it was 70; in the experiment on SASKR (setting [11]), 80. Besides, the “herbicidal activity against POLAV found” value with POLAV (setting [7]) was determined as 70; with POLAV (setting [9]), 75; in the experiment on POLAV (setting [12]), 70; with POLAV (setting [10]), 75; with POLAV (setting [11]) it was 75. In addition, the “herbicidal activity against KCHSC found” value in the experiment with KCHSC (setting [8]) and in the experiment on KCHSC (setting [9]) was 85 each time. For the same compound, the “herbicidal activity against POLCO found” value with POLCO (setting [7]) and in the experiment with POLCO (setting [12]) was 75 throughout. Besides, the “herbicidal activity against SORVU found” value in the experiment with SORVU (setting [11]) was determined as 50. Besides, the “herbicidal activity against ERICA found” value in the experiment with ERICA was 80.
